According to publication PMC9517990 (Communications Biology, 2022):

Assays:
[1] = test system: A/South Korea/90207/2020 WT virus (NA-H275, PA-I38); test: microbe, parasite or virus in culture; assay type: cell-based, influenza A(H1N1)pdm09 virus; settings: Influenza A virus, MDCK, 24 h, read-out: EC50 nM ± SD (column headed IC50; footnote: EC50)
[2] = target: neuraminidase of A/South Korea/90207/2020 WT virus (NA-H275, PA-I38) (Influenza A virus (A(H1N1)pdm09), UniProt A0A0X9QTS2); assay type: biochemical

| Compound | EC50 [1] | IC50 [2] |
| --- | --- | --- |
| O=C1c2c(O)c(=O)ccn2N([C@@H]2c3ccccc3SCc3c2ccc(F)c3F)[C@@H]2COCCN12 [Baloxavir, Baloxavir acid] | 1 ± 0.2 nM | – |
| CCC(CC)[C@H](NC(C)=O)[C@@H]1[C@H](O)[C@@H](C(=O)O)C[C@H]1N=C(N)N [Peramivir, peramivir] | – | 0.16 nM |
